Measurements from ChEMBL document CHEMBL1137975, “DNA binding ligands with in vivo efficacy in murine models of bacterial infection: optimization of internal aromatic amino acids” (2004).
In brackets after ≈: the same amount, converted by molar mass.

Experiments:
[1] = Minimum inhibitory concentration in mice against antimicrobial activity in […] (PISP 49619).; type: functional; details: Streptococcus pneumoniae
Enterococcus faecalis = assay: Minimum inhibitory concentration in mice against antimicrobial activity in vancomycin-sensitive Enterococcus faecalis (VSEF 29212).
Staphylococcus aureus = assay: Minimum inhibitory concentration in mice against antimicrobial activity in methicillin-resistant Staphylococcus aureus(MRSA 27660).; type: functional
Mus musculus [2] = species on record: Mus musculus; assay: Minimum inhibitory concentration was evaluated in mice against antimicrobial activity in methicillin-resistant Staphylococcus aureus(MRSA 27660); 1-2; type: functional
Mus musculus [3] = species on record: Mus musculus; assay: Minimum inhibitory concentration was evaluated in mice against antimicrobial activity in […] (PISP 49619); 0.13-0.25; type: functional
Mus musculus [4] = species on record: Mus musculus; assay: Minimum inhibitory concentration was evaluated in mice against antimicrobial activity in […] Enterococcus faecalis (VSEF 29212); 2-8; type: functional
Mus musculus [5] = species on record: Mus musculus; assay: Minimum inhibitory concentration was evaluated in mice against antimicrobial activity in […] (PISP 49619); 0.5-2; type: functional
Mus musculus [6] = species on record: Mus musculus; assay: Minimum inhibitory concentration was evaluated in mice against antimicrobial activity in […] (PISP 49619); 0.03-0.06; type: functional
Mus musculus [7] = species on record: Mus musculus; assay: Minimum inhibitory concentration was evaluated in mice against antimicrobial activity in methicillin-resistant Staphylococcus aureus(MRSA 27660); 0.06-0.13; type: functional
Mus musculus [8] = species on record: Mus musculus; assay: Minimum inhibitory concentration was evaluated in mice against antimicrobial activity in […] (PISP 49619); 0.5-1; type: functional
Mus musculus [9] = species on record: Mus musculus; assay: Minimum inhibitory concentration was evaluated in mice against antimicrobial activity in […] Enterococcus faecalis (VSEF 29212); 0.13-1; type: functional
Mus musculus [10] = species on record: Mus musculus; assay: Minimum inhibitory concentration was evaluated in mice against antimicrobial activity in […] (PISP 49619); 0.03-0.13; type: functional
Mus musculus [11] = species on record: Mus musculus; assay: Minimum inhibitory concentration was evaluated in mice against antimicrobial activity in […] (PISP 49619); 1-32; type: functional

SMILES	MIC [1]	MIC (Enterococcus faecalis)	MIC (Staphylococcus aureus)	other results
Cn1cc(NC(=O)c2sccc2Cl)cc1C(=O)Nc1cc(C(=O)Nc2c[nH]c(C(=O)NCCN3CCOCC3)c2)n(C)c1	8 µg/mL (≈ 12.8 µM)	32 µg/mL (≈ 51 µM)	16 µg/mL (≈ 25.5 µM)	
Cn1cc(NC(=O)c2nc(NC(=O)c3cc(NC(=O)c4sccc4Cl)cn3C)cn2C)cc1C(=O)NCCN1CCOCC1	16 µg/mL (≈ 24.9 µM)	> 32 µg/mL	> 32 µg/mL	
Cn1cc(NC(=O)c2ccc(NC(=O)c3cc(NC(=O)c4ccccn4)cn3C)cc2)cc1C(=O)NCCN1CCOCC1	0.5 µg/mL (≈ 0.835 µM)	> 32 µg/mL	> 32 µg/mL	
Cn1cc(NC(=O)c2cc(NC(=O)c3cc(NC(=O)c4cc5ccccc5cn4)nn3C)cn2C)cc1C(=O)NCCN1CCOCC1	0.5 µg/mL (≈ 0.766 µM)	8 µg/mL (≈ 12.3 µM)	1 µg/mL (≈ 1.53 µM)	
CC(C)n1cc(NC(=O)c2sccc2Cl)cc1C(=O)Nc1cc(C(=O)Nc2cc(C(=O)NCCN3CCOCC3)n(C)c2)n(C)c1	2 µg/mL (≈ 2.99 µM)	4 µg/mL (≈ 5.98 µM)	4 µg/mL (≈ 5.98 µM)	
Cn1cc(NC(=O)c2cc(NC(=O)CCNC(=O)c3cc4ccccc4cn3)cn2C)cc1C(=O)NCCN1CCOCC1	8 µg/mL (≈ 13.3 µM)	16 µg/mL (≈ 26.6 µM)	32 µg/mL (≈ 53.3 µM)	
Cn1cc(NC(=O)c2cc(NC(=O)c3cc(NC(=O)c4cc5ccccc5cn4)cn3C)cn2C)cc1C(=O)NCCN1CCOCC1	0.06 µg/mL (≈ 0.0921 µM)	0.25 µg/mL (≈ 0.384 µM)	0.5 µg/mL (≈ 0.767 µM)	
Cn1cc(NC(=O)c2cc(NC(=O)c3cc(NC(=O)c4cc5ccccc5cn4)cn3C)cs2)cc1C(=O)NCCN1CCOCC1	0.5 µg/mL (≈ 0.764 µM)	> 32 µg/mL	8 µg/mL (≈ 12.2 µM)	
Cn1cc(NC(=O)c2cc(NC(=O)c3cc(NC(=O)c4cc5ccccc5cn4)cs3)cn2C)cc1C(=O)NCCN1CCOCC1				MIC (Mus musculus [2]): 2 µg/mL (≈ 3.05 µM); MIC (Mus musculus [3]): 0.25 µg/mL (≈ 0.382 µM)
Cn1cc(NC(=O)c2cc(NC(=O)c3cc(NC(=O)c4sccc4Cl)nn3C)cn2C)cc1C(=O)NCCN1CCOCC1	0.25 µg/mL (≈ 0.389 µM)	8 µg/mL (≈ 12.5 µM)	8 µg/mL (≈ 12.5 µM)	
Cn1cc(NC(=O)c2cc(NC(=O)c3ccc(NC(=O)c4sccc4Cl)cc3)cn2C)cc1C(=O)NCCN1CCOCC1	32 µg/mL (≈ 50.1 µM)	16 µg/mL (≈ 25.1 µM)	32 µg/mL (≈ 50.1 µM)	
Cn1cc(NC(=O)c2sccc2Cl)cc1C(=O)Nc1cc(C(=O)Nc2cccc(C(=O)NCCN3CCOCC3)c2)n(C)c1	8 µg/mL (≈ 12.5 µM)	16 µg/mL (≈ 25.1 µM)	16 µg/mL (≈ 25.1 µM)	
CC(C)n1cc(NC(=O)c2cc(NC(=O)c3sccc3Cl)cn2C)cc1C(=O)Nc1cc(C(=O)NCCN2CCOCC2)n(C)c1	0.5 µg/mL (≈ 0.747 µM)	1 µg/mL (≈ 1.49 µM)	1 µg/mL (≈ 1.49 µM)	
Cn1cc(NC(=O)c2cc(NC(=O)c3cc(NC(=O)c4cc5ccccc5cn4)cn3C)nn2C)cc1C(=O)NCCN1CCOCC1	0.25 µg/mL (≈ 0.383 µM)	1 µg/mL (≈ 1.53 µM)	0.5 µg/mL (≈ 0.766 µM)	
Cn1cc(NC(=O)c2cccc(NC(=O)c3cc(NC(=O)c4sccc4Cl)cn3C)c2)cc1C(=O)NCCN1CCOCC1	> 32 µg/mL	> 32 µg/mL	> 32 µg/mL	
Cn1cc(NC(=O)c2ccc(NC(=O)c3cc(NC(=O)c4ccc(F)cc4F)cn3C)cc2)cc1C(=O)NCCN1CCOCC1	0.5 µg/mL (≈ 0.789 µM)	8 µg/mL (≈ 12.6 µM)	32 µg/mL (≈ 50.5 µM)	
Cn1cc(NC(=O)c2cc(NC(=O)c3nc(NC(=O)c4cc5ccccc5cn4)cn3C)cn2C)cc1C(=O)NCCN1CCOCC1	0.25 µg/mL (≈ 0.383 µM)	1 µg/mL (≈ 1.53 µM)	1 µg/mL (≈ 1.53 µM)	
Cn1cc(NC(=O)c2cc(NC(=O)c3cc(NC(=O)c4sccc4Cl)cn3C)c[nH]2)cc1C(=O)NCCN1CCOCC1			8 µg/mL (≈ 12.8 µM)	MIC (Mus musculus [4]): 8 µg/mL (≈ 12.8 µM); MIC (Mus musculus [5]): 2 µg/mL (≈ 3.19 µM)
Cn1cc(NC(=O)c2ccc(NC(=O)c3cc(NC(=O)c4cc5cc6c(cc5cn4)OCO6)cn3C)cc2)cc1C(=O)NCCN1CCOCC1	0.5 µg/mL (≈ 0.722 µM)	0.5 µg/mL (≈ 0.722 µM)	0.06 µg/mL (≈ 0.0866 µM)	
Cn1cc(NC(=O)c2cc(NC(=O)c3cc(NC(=O)c4sccc4Cl)c[nH]3)cn2C)cc1C(=O)NCCN1CCOCC1	2 µg/mL (≈ 3.19 µM)	2 µg/mL (≈ 3.19 µM)	8 µg/mL (≈ 12.8 µM)	

SMILES	MIC [1]	MIC (Enterococcus faecalis)	MIC (Staphylococcus aureus)	other results
Cc1cnc(C(=O)Nc2cc(C(=O)Nc3ccc(C(=O)Nc4cc(C(=O)NCCN5CCOCC5)n(C)c4)cc3)n(C)c2)cn1	0.13 µg/mL (≈ 0.212 µM)	2 µg/mL (≈ 3.26 µM)	0.5 µg/mL (≈ 0.815 µM)	
Cn1cc(NC(=O)c2ccc(NC(=O)c3cc(NC(=O)c4sc5ccccc5c4Cl)cn3C)cc2)cc1C(=O)NCCN1CCOCC1	0.25 µg/mL (≈ 0.363 µM)	16 µg/mL (≈ 23.2 µM)	> 32 µg/mL	
Cn1cc(NC(=O)c2ccc(NC(=O)c3cc(NC(=O)c4cc5ccccc5cn4)cn3C)cc2)cc1C(=O)NCCN1CCOCC1				MIC (Mus musculus [6]): 0.06 µg/mL (≈ 0.0925 µM); MIC (Mus musculus [7]): 0.13 µg/mL (≈ 0.2 µM)
Cn1cc(NC(=O)c2ccc(NC(=O)c3cc(NC(=O)c4cc5cc6c(cc5s4)OCO6)cn3C)cc2)cc1C(=O)NCCN1CCOCC1	0.5 µg/mL (≈ 0.717 µM)	> 32 µg/mL	32 µg/mL (≈ 45.9 µM)	
Cn1cc(NC(=O)c2ccc(NC(=O)c3cc(NC(=O)c4cnc5ccccc5c4)cn3C)cc2)cc1C(=O)NCCN1CCOCC1	2 µg/mL (≈ 3.08 µM)	> 32 µg/mL	> 32 µg/mL	
Cn1cc(NC(=O)c2cc(NC(=O)c3cc(NC(=O)c4cc5ccccc5cn4)on3)cn2C)cc1C(=O)NCCN1CCOCC1	0.13 µg/mL (≈ 0.203 µM)	0.5 µg/mL (≈ 0.782 µM)	0.06 µg/mL (≈ 0.0938 µM)	
Cn1cc(NC(=O)c2sccc2Cl)cc1C(=O)Nc1cc(C(=O)Nc2ccc(C(=O)NCCN3CCOCC3)cc2)n(C)c1	> 32 µg/mL	> 32 µg/mL	> 32 µg/mL	
Cn1cc(NC(=O)c2ccc(NC(=O)c3cc(NC(=O)c4ccncn4)cn3C)cc2)cc1C(=O)NCCN1CCOCC1	0.5 µg/mL (≈ 0.834 µM)	32 µg/mL (≈ 53.4 µM)	> 32 µg/mL	
Cn1cc(NC(=O)c2sccc2Cl)cc1C(=O)Nc1cc(C(=O)Nc2cc(C(=O)NCCN3CCOCC3)n(C)n2)n(C)c1	> 32 µg/mL	> 32 µg/mL	> 32 µg/mL	
Cn1cc(NC(=O)c2cc(NC(=O)c3cccc(NC(=O)c4sccc4Cl)c3)cn2C)cc1C(=O)NCCN1CCOCC1	> 32 µg/mL	> 32 µg/mL	> 32 µg/mL	
Cn1cc(NC(=O)c2cc(NC(=O)c3cc(NC(=O)c4cc5ccccc5cn4)c[nH]3)cn2C)cc1C(=O)NCCN1CCOCC1		0.5 µg/mL (≈ 0.784 µM)		MIC (Mus musculus [2]): 2 µg/mL (≈ 3.14 µM); MIC (Mus musculus [8]): 1 µg/mL (≈ 1.57 µM)
CC(C)n1cc(NC(=O)c2cc(NC(=O)c3cc(NC(=O)c4sccc4Cl)cn3C)cn2C)cc1C(=O)NCCN1CCOCC1	0.25 µg/mL (≈ 0.374 µM)	1 µg/mL (≈ 1.49 µM)	1 µg/mL (≈ 1.49 µM)	
Cn1cc(NC(=O)c2cc(NC(=O)c3nc(NC(=O)c4sccc4Cl)cn3C)cn2C)cc1C(=O)NCCN1CCOCC1				MIC (Mus musculus [9]): 1 µg/mL (≈ 1.56 µM); MIC (Mus musculus [10]): 0.13 µg/mL (≈ 0.202 µM)
Cn1cc(NC(=O)c2sccc2Cl)cc1C(=O)Nc1cc(C(=O)Nc2cn(C)c(C(=O)NCCN3CCOCC3)n2)n(C)c1	> 32 µg/mL	> 32 µg/mL	> 32 µg/mL	
Cn1cc(NC(=O)c2ccc(NC(=O)c3cc(NC(=O)c4nccc5ccccc45)cn3C)cc2)cc1C(=O)NCCN1CCOCC1	0.25 µg/mL (≈ 0.385 µM)	2 µg/mL (≈ 3.08 µM)	1 µg/mL (≈ 1.54 µM)	
Cn1cc(NC(=O)c2ccc(NC(=O)c3cc(NC(=O)c4sccc4Cl)cn3C)cc2)cc1C(=O)NCCN1CCOCC1	1 µg/mL (≈ 1.57 µM)	2 µg/mL (≈ 3.13 µM)	8 µg/mL (≈ 12.5 µM)	
Cn1cc(NC(=O)c2cc(NC(=O)c3cc(NC(=O)c4sccc4Cl)cn3C)nn2C)cc1C(=O)NCCN1CCOCC1		> 32 µg/mL	32 µg/mL (≈ 49.8 µM)	MIC (Mus musculus [11]): 32 µg/mL (≈ 49.8 µM)
CC(=O)NCC1CN(c2ccc(N3CCOCC3)c(F)c2)C(=O)O1 (single isomer, unassigned) [LINEZOLID]	1 µg/mL (≈ 2.96 µM)			
CN[C@H](CC(C)C)C(=O)N[C@H]1C(=O)N[C@@H](CC(N)=O)C(=O)N[C@H]2C(=O)N[C@H]3C(=O)N[C@H](C(=O)N[C@H](C(=O)O)c4cc(O)cc(O)c4-c4cc3ccc4O)[C@H](O)c3ccc(c(Cl)c3)Oc3cc2cc(c3O[C@@H]2O[C@H](CO)[C@@H](O)[C@H](O)[C@H]2O[C@H]2C[C@](C)(N)[C@H](O)[C@H](C)O2)Oc2ccc(cc2Cl)[C@H]1O [VANCOMYCIN]	0.25 µg/mL (≈ 0.173 µM)	1 µg/mL (≈ 0.69 µM)		
